According to patent US20050003371A1, “Modified nucleotides and methods of labeling nucleic acids” (Stratagene, priority 2002, published 2005):
Entries after “also recorded” stand apart in the source; their conditions may differ.

What was measured:
[1] = molecular target: T1, terminal deoxynucleotide transferase (TdT) (Bos taurus, UniProt P06526); assay: Tailing / 3'-end labeling of a 12-mer oligonucleotide with terminal transferase (Procedure 1); type: biochemical; settings: for number of contiguous modified bases added to the 3' terminus: TdT-catalyzed end labeling
T1 construct: purchased Stratagene (La Jolla, Calif.)
Procedure: A 12-mer oligonucleotide (5′-[…]-3′; SEQ ID NO: 1) was 5′ labeled with ^32P ATP and T4 Polynucleotide Kinase according to established methods (Roychoudhury and Wu, 1980; Sambrook, Fritch, and Maniatis, 1989). Aliquots of the mixture containing 10 ng of kinased oligo were combined with 100 pmol of fluorescein 12-dUTP and 5 units of terminal deoxynucleotide transferase (TdT) in 100 mM potassium cacodylate, 2 mM CoCl2, pH 7.2 (final volume of 10 μL). […] The reactions were quenched by the addition of loading dye and 4 μL aliquots were loaded onto a sequencing gel (14″×17″, poured with 20% acrylamide/7M urea/1×TBE), electrophoresed for 3 hours at 55 watts/[…] and exposed to X-ray film.

Klenow polymerase = molecular target: T2, Klenow polymerase (Escherichia coli, UniProt P00582); assay: Polymerase primer extension assay (Procedure 2); type: biochemical, E. coli; settings: Procedure 2, results not shown
T2 construct: Incorporation results using SAc-dUTP and the Klenow fragment of DNA polymerase I following Procedure 3
Procedure: (§1) Aliquots containing 10 ng of the kinased 12-mer described in procedure 1 were combined with 40 ng of an 18-mer oligonucleotide (5′-[…]-3′; SEQ ID NO: 2) in 8 μL of T-7 buffer (20 mM MgCl2, 50 mM NaCl, 40 mM Tris, pH 7.5) or Klenow buffer (5 mM MgCl2, 4 mM DTT, 35 mM Tris, pH 7.5). To each reaction was added 1 μL of a solution containing 100 μM each of dATP and fluorescein 12-dUTP. The reaction contents were heated to 95° C. for 2 minutes and allowed to cool to room temperature. Five units (1 μL) of the appropriate polymerase were added and the reaction mixtures were incubated at 37° C. for 10 minutes. Control reactions were run which contained no polymerase. Polymerase activity was terminated by addition of 3 μL of 1M EDTA and the extension products were separated by electrophoresis using a 20% acrylamide gel and the results visualized by autoradiography. A measurement of the degree of polymerase-catalyzed primer extension obtained in the presence of modified nucleotide analogs according to the invention can be determined by substituting the modified nucleotide (1 μL of 100 μM) for fluorescein 12-dUTP in procedure 2.

Taq DNA polymerase = molecular target: T3, Taq DNA polymerase (Thermus aquaticus, UniProt P19821); assay: Polymerase primer extension assay, 12-mer primer/18-mer template (Procedure 2); type: biochemical; settings: template with maximum four dTTP/dUTP sites
T3 construct: purchased Stratagene (La Jolla, Calif.)
Procedure: as §1

T7 DNA polymerase = T7 DNA polymerase (Escherichia phage T7, UniProt P00581); settings: Procedure 2; for incorporation into DNA by T7 DNA polymerase in primer extension: template with maximum four dTTP/dUTP sites
Procedure: as §1

[2] = tested on: exonuclease free Klenow polymerase; settings: Procedure 2, results not shown
Procedure: as §1

T1 sequence (P06526 whole entry): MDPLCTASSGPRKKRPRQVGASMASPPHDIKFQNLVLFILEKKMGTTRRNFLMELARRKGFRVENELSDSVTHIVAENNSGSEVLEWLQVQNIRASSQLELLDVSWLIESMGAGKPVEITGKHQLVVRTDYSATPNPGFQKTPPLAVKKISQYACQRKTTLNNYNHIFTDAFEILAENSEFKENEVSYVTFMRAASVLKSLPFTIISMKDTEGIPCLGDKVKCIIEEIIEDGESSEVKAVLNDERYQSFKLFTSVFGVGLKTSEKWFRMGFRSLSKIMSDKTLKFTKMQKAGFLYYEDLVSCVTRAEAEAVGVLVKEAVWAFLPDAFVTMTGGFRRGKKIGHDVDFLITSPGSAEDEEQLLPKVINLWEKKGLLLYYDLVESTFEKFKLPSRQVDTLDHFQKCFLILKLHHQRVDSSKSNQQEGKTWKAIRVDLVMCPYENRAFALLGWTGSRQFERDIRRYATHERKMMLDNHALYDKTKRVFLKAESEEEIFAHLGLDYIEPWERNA
T3 sequence (P19821 whole entry): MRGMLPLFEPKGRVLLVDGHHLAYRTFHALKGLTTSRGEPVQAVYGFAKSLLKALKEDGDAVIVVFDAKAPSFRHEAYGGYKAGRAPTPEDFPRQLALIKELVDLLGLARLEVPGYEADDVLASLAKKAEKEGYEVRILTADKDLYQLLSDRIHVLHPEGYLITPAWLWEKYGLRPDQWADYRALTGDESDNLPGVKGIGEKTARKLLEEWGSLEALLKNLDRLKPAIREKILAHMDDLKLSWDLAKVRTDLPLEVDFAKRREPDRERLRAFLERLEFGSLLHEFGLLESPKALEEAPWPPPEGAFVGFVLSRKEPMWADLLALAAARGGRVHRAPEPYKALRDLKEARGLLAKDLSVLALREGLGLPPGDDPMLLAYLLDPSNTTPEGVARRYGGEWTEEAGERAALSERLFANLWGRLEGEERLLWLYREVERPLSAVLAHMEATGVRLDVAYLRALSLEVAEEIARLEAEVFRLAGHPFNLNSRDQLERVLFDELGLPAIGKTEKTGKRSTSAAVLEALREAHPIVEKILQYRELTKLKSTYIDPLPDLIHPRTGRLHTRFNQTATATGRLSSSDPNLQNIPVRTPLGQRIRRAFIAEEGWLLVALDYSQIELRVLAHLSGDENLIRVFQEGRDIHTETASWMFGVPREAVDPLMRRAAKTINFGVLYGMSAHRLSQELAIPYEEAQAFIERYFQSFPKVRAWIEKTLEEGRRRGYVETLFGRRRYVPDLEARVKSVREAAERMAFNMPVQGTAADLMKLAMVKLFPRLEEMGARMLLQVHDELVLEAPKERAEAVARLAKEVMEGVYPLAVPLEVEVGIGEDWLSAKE
T7 DNA polymerase, sequence (P00581 whole entry): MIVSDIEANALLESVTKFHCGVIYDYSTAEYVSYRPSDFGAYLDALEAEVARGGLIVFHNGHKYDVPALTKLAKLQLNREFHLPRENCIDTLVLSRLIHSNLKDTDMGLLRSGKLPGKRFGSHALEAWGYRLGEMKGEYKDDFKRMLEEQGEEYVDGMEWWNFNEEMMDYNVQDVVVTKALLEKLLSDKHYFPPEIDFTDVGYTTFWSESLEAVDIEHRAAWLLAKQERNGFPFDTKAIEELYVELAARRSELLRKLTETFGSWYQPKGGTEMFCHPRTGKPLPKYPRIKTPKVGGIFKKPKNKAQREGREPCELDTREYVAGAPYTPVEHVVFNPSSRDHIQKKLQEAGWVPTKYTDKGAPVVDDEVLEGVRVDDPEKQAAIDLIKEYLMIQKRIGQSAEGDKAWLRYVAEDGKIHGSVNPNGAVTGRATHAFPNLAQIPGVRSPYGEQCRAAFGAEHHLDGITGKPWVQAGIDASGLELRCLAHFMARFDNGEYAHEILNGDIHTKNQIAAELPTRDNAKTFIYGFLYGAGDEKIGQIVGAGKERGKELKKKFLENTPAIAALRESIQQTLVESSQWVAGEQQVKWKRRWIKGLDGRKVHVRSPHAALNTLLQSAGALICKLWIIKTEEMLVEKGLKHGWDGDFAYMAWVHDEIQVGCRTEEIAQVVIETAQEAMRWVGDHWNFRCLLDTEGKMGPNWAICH
T7 DNA polymerase, sequence (P0AA25 2-109, further chain): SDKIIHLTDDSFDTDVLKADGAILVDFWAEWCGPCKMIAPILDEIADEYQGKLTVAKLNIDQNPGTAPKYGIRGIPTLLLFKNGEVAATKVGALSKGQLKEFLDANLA
T2 sequence (P00582 324-928): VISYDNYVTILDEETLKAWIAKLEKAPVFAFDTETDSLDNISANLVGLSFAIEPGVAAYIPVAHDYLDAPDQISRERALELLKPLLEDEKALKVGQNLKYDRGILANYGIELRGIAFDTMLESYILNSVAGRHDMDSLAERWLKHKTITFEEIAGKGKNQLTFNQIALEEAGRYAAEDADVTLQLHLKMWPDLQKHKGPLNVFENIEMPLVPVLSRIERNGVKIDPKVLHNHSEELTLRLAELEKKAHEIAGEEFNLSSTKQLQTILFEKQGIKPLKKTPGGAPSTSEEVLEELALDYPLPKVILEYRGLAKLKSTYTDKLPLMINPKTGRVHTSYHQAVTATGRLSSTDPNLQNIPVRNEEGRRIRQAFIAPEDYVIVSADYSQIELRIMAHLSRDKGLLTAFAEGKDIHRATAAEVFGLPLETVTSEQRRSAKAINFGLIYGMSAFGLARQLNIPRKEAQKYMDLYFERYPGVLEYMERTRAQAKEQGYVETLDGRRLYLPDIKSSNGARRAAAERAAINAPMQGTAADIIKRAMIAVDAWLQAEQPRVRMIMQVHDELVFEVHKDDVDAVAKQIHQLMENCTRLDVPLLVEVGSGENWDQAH

| Substance | number of contiguous modified bases added to the 3' terminus [1] | accepted as substrate by Klenow polymerase in primer extension (Klenow polymerase) | incorporation into DNA by Taq DNA polymerase in primer extension (Taq DNA polymerase) | incorporation into DNA by T7 DNA polymerase in primer extension (T7 DNA polymerase) | accepted as substrate by exonuclease free Klenow polymerase in primer extension [2] | substrate for TdT in oligonucleotide tailing / 3'-end labeling ([1]; Procedure 1, 20% denaturing PAGE, autoradiography) | substrate efficiency with T7 polymerase relative to Taq polymerase (T7 DNA polymerase; smaller fragments observed in T7 reaction) |
| --- | --- | --- | --- | --- | --- | --- | --- |
| maleimido-methylcyclohexane-dUTP [MCC-dUTP] | up to 5 bases | accepted as a substrate | essentially the same degree of incorporation as PDP-dUTP | essentially the same degree of incorporation as PDP-dUTP | accepted as a substrate |  |  |
| pyridine dithiopropanoate-dUTP [PDP-dUTP] | up to 10 bases |  | incorporated into DNA; also recorded: incorporated at several sites | incorporated into DNA |  | substrate for TdT | reduced substrate efficiency with T7 polymerase compared to Taq polymerase |
